From patent US10351519B2, “Sulfamate derivative compounds, processes for preparing them and their uses” (BIO-PHARM SOLUTIONS CO., LTD., priority 2016, dated 2019)

Legend:
Assay type in all cases: in vivo
[1] = system: ICR mice; experiment: Anti-epilepsy activity, MES test, mouse
Method: (§1) In the MES test (Ref., G. Villetti et al. Neuropharmacology 40 (2001) 866-878), an electrical stimulus (mice: 50 mA, 60 Hz, 0.2 sec, and rats: 150 mA, 60 Hz, 0.2 sec in the test animal) supplied by an 11A Shocker (IITC Life Science Company) was delivered through corneal electrodes. All mice or rats assigned to any electroshock at peak time were treated with each test compound sample which was dissolved in 30% PEG 400 or 20% tween 80 prepared by saline solvent applied orally before the test. […] Three doses of the test sample were administered orally to 9-18 animals (3-6 mice per dose) for evaluating the respective doses at which 50% of the animals were protected from seizure (ED50). The ED50 value (median effective dose) was calculated by Litchfield and Wicoxon log-probit method which is a dose-response relationship. Experimental animals, male ICR mice and male SD rats, were purchased from OrientBio, Samtako, or Nara Biotech, Korea, and housed in cages (4-5 mice or 3 rats per cage) for 4-5 days. The range of mice body weight was between 19 and 25 grams and range of rats body weight was between 100 and 130 grams.

[2] = system: ICR mice; experiment: Anti-epilepsy activity, scPTZ test, mouse
Source text: In this experiment, each test compound sample was formulated as described in Biological Experimental Example I, and administered intraperitoneally to the test animals (mice; ICR or Rat; SD); Experimental animals, male ICR mice and male SD rats, were purchased from OrientBio or Nara biotech, Korea, and housed 4-5 mice per a cage for 4-5 days. The range of mice body weight was used between 19 and 26 grams and range of rats body weight was used between 100 and 130 grams. After Peak time (0.5, 1, 2 and 4 hr) from the administration, PTZ (Pentylenetetrazol) was administered subcutaneously in the concentration capable of inducing 97% intermittent convulsions (mice: 76-110 mg/kg·bw, 10 μl/g, or rats: 79-110 mg/kg·bw, 2 μl/g). If clonic seizure was not observed for at least 30 minutes in the PTZ administered animal, it can be considered that the test compound has anti-epilepsy activity. The median effective dose (ED50) is determined using 6 animals per a concentration (total three different concen-trations), and calculated by Litchfield and Wicoxon log-probit method which is a dose-response relationship.

[3] = system: SD rats; experiment: Anti-epilepsy activity, MES test, rat; details: for ED50: Rattus norvegicus, po
Method: as §1

[4] = system: Sprague-Dawley rats; experiment: Antiallodynic activity on Chung model (SNL, spinal nerve ligation); details: orally; for SNL efficacy %: 30 mg/kg; for ED50: Rattus norvegicus, po, at peak time
Source text: Male Sprague-Dawley rats (100-130 g, Orient Bio, Korea) were habituated for 1 week before the experiment and allowed free access to food and water throughout the experimentation. Room temperature and humidity were maintained at 24±2 and 50±10%, respectively. The neuropathic surgery (SNL, Spinal nerve ligation) model was done as described in Kim and Chung (1992). Briefly, an animal was put under gaseous anesthesia with isoflurane. The left lumber spinal nerve L5 and L6 were isolated and tightly ligated with 6-0 silk thread. The wound muscle was closed with Catgut® chrom 3/0 thread and skin was closed with Dafilon 3/0 tread. Sham controls were prepared in the same manner with the spinal nerves exposed, but with no ligated L5 and L6 nerves. Preparation of the vehicle controls were identical to the group treated with compound, except for administration of vehicles without compound in the vehicle control group.
Tactile sensitivity (Mechanical allodynia) was evaluated using von Frey monofilaments before and after treatment, and animals were included in the study only if the withdrawal threshold value was less than 4 g. One week after surgery, SNL-operated animals, sham-operated animals and vehicle control animals were tested for tactile sensitivity with von Frey monofilaments 3 trials in each animal. All Animals were placed in a stainless steel mash chamber and habituated for 30 min in the test cage. The tactile sensitivity for the ipsilateral hind paw was measured using the up-and-down method (Dixon, 1980) with seven von Frey monofilaments (0.4, 1, 2, 4, 6, 8, and 15 g) in 3 trials. The tactile sensitivity test was followed by Dixon's method (Dixon, 1980). The 50% paw withdrawal threshold for each paw was calculated using the following formula: [Xth] log=[vFr] log+ky where [vFr] is the force of the last von Frey used, k=0.2249 which is the average interval (in log units) between the von Frey monofilaments, and y is a value that depends upon the pattern of withdrawal responses (Dixon, 1980).
All animals were fasted 18 h before the administration of the compounds. Antiallodynic effect of compounds were evaluated at the three dose, orally administrated in a volume of 5 ul/g, bw in a vehicle of 30% (v/v) PEG 400 or 20% (v/v) Tween 80. The test was performed at the peak time of efficacy after compound administration.
The relative values compared to the sham group (% control) were calculated and shown in Table 3, which show an antiallodynic effect of the test compounds on SNL model in rats.

[5] = system: Sprague-Dawley rats; experiment: Antiallodynic activity on Complete Freund's Adjuvant (CFA)-induced inflammatory pain model; details: intraperitoneally
Method: Male, Sprague-Dawley rats (210-250 g, Nara Bio, Korea) were habituated for 1 week before CFA injection and allowed free access to food and water throughout the experimentation. Room temperature and humidity were maintained at 24±2 and 50±10%, respectively.
CFA-induced inflammatory pain was induced by the procedure of Nagakura et al. (2003) and Gregory P. et al. (2010) with minor modifications. CFA (sigma, USA) was injected in the right plantar with a 100 ul volume under gaseous anesthesia with isoflurane. Sham controls were injected with 100 ul of saline and preparation of the vehicles without compound in the vehicle control group. Tactile sensitivity (Mechanical allodynia) was evaluated using von Frey monofilaments before and after treatment, and the animals were included in the study only if the withdrawal threshold value was less than 4 g. One week after surgery, CFA-infused treatment animals (n=4-6), sham-operated animals (n=12), and vehicle control animals (n=17) were tested for tactile sensitivity with von Frey monofilaments 3 trials for each animal. All Animals were placed in a stainless steel mesh chamber and habituated for 30 min in the test box. The tactile sensitivity for ipsilateral hind paw was measured using the up-and-down method (Dixon, 1980) with seven von Frey monofilaments (0.4, 1, 2, 4, 6, 8, and 15 g) to 3 trials. Tactile sensitivity test was followed by Dixon's method (Dixon, 1980). The 50% paw withdrawal threshold for each paw was calculated using the following formula: [Xth] log=[vFr] log+ky where [vFr] is the force of the last von Frey used, k=0.2249 which is the average interval (in log units) between the von Frey monofilaments, and y is a value that depends upon the pattern of withdrawal responses (Dixon, 1980).
Antiallodynic effect of compound was evaluated at the dose of 10-60 mg/kg (n=4-6), intraperitoneally administrated in a volume of 5 ul/g bw in a vehicle of 30% (v/v) PEG or 20% (v/v) Tween 80. The test was performed peak time of efficacy (0.5 or 1 hr) after compound administration.
The relative values compared to the sham (% control) were calculated and shown in Table 4, which show an antiallodynic effect of Compound 1 on CFA-induced pain model in rats.

[6] = system: Sprague-Dawley rats; experiment: Lithium-pilocarpine induced epilepsy test, prevention; details: i.p.
Method: Male Sprague-Dawley rats (purchased from Orient Bio Inc. Korea) of body weight 175-200 grams were used for these studies and 3 rats per cage were housed for 4-5 days. On the day prior to SE, rats received 127 mg/kg lithium chloride (Sigma, St. Louis, Mo., U.S.A.) intraperitoneally (i.p.). Approximately 18-20 h following this treatment, rats were given an i.p. injection of CD97 dose (30-43 mg/kg) pilocarpine (Sigma). An i.p. injection of 2 mg/kg methyl-scopolamine (Sigma) was administered 30 min prior to pilocarpine to block the effects of the muscarinic agonist on peripheral cholinergic receptors. Test drugs were dissolved in 30% PEG 400 or 20% tween80 (Sigma).
The drugs were administered intraperitoneally (i.p.) in a volume of 2 ul/g body weight. Pharmacological effects of all of the test materials were evaluated to compare test groups (n=6) with a control group (n=6). Control group was administered vehicle only. The efficacy was measured 0.5, 1, 2, or 4 hours after the administration of the test material. The time point that the most animals were protected was defined as peak time and the ED50 was determined at peak time. The animals were then transferred to observation cages and observed continuously for 90 min. Seizure was elicited in approximately 95% of the control group. Protection was defined as complete absence of seizure grade 3-5 (Racine scale; Racine, 1972) over the 90-min observation period. The effective dose of the compound necessary to protect 50% of the animals against seizures compared to controls (i.e. ED50) was determined by a curve fitting program (Excel 2007, Microsoft).

[7] = Rattus norvegicus, ip, read-out: CFA-induced pain model efficacy %
[8] = po, read-out: MES test (po) efficacy %

| Compound | MES test (po) Peak time [1] | MES test (po) Peak time [3] | SNL Peak Time [4] | SNL efficacy % [4] | response vs control in vivo at 50 mg/kg [5, 7] | CFA-induced pain model Peak Time [5] | ED50 [3] | responders at 60 mg/kg [1, 8] | also measured |
| --- | --- | --- | --- | --- | --- | --- | --- | --- | --- |
| C[C@H](OS(N)(=O)=O)[C@@H](O)c1ccccc1Cl [Example 1, (1S, 2S)-1-(2-chlorophenyl)-1-hydroxypropan-2-yl sulfamate] | 2 h | – | – | – | – | – | – | – | ED50 ([1]; po): 46.9 mg/kg; scPTZ test (ip) Peak time [2]: 0.5 h; ED50 ([2]; ip): 76.6 mg/kg |
| C[C@@H](OS(N)(=O)=O)[C@H](O)c1ccc(Cl)cc1Cl [Example 4, (1R, 2R)-1-(2,4-dichlorophenyl)-1-hydroxypropan-2-yl sulfamate] | – | 4 h | – | – | – | – | – | – | scPTZ test (ip) Peak time [2]: 2 h; scPTZ test (ip) efficacy % ([2]; 100 mg/kg): 100(100%); MES test (po) efficacy % ([3]; 10 mg/kg): 33% |
| C[C@@H](OS(N)(=O)=O)[C@H](O)c1ccccc1F [Example 18, (1R, 2R)-1-(2-fluorophenyl)-1-hydroxypropan-2-yl sulfamate] | 1 h | (2 h) | 0.5 h | 30(48.2%) | 46.6% | 0.5 h | 14.2 mg/kg | – | ED50 ([1]; po): 62 mg/kg |
| COCO[C@H](c1ccccc1F)[C@@H](C)OS(N)(=O)=O [Example 73, (1R, 2R)-1-(2-fluorophenyl)-1-(methoxymethoxy)propan-2-yl sulfamate] | 1 h | (4 h) | 1 h | 30(31.3%) | 38.5% | 0.5 h | 34.8 mg/kg | 33.3% | – |
| C[C@H](OS(N)(=O)=O)[C@@H](O)c1ccccc1I [Example 19, (1S, 2S)-1-(2-iodophenyl)-1-hydroxypropan-2-yl sulfamate] | 1 h | – | 1 h | – | – | 1 h | – | – | ED50 [4]: 44.6 mg/kg; response vs control in vivo at 30 mg/kg ([5]; Rattus norvegicus, ip, 30 mg/kg, read-out: CFA-induced pain model efficacy %): 24.3%; responders at 30 mg/kg ([1]; po, 30 mg/kg, read-out: MES test (po) efficacy %): 66.6% |
| C[C@@H](OS(N)(=O)=O)[C@H](O)c1cccc(Cl)c1Cl [Example 10, (1R, 2R)-1-(2,3-dichlorophenyl)-1-hydroxypropan-2-yl sulfamate] | 1 h | – | – | – | – | – | – | – | responders at 100 mg/kg ([1]; po, 100 mg/kg, read-out: MES test (po) efficacy %): 83.3%; Lithium pilocarpine model (pre) peak time [6]: 1 h; Lithium pilocarpine model (pre) efficacy % ([6]; 100 mg/kg): 66.6% |
| COCO[C@H](c1ccccc1I)[C@@H](C)OS(N)(=O)=O [Example 75, (1R, 2R) 1-(2-iodophenyl)-1-(methoxymethoxy)propan-2-yl sulfamate] | 1 h | (2 h) | 1 h | 30(64.9%) | 28.1% | 0.5 h | 4.2 mg/kg | 33.3% | – |
| C[C@@H](OS(N)(=O)=O)[C@H](O)c1ccccc1I [Example 20, (1R, 2R)-1-(2-iodophenyl)-1-hydroxypropan-2-yl sulfamate] | 1 h | (2 h) | 1 h | 30(58.7%) | 28.7% | 0.5 h | 20.1 mg/kg | 16.6% | – |
| COCO[C@@H](c1ccccc1Cl)[C@H](C)OS(N)(=O)=O [Example 69, (1S, 2S)-1-(2-chlorophenyl)-1-(methoxymethoxy)propan-2-yl sulfamate] | – | 1 h | 1 h | – | – | 0.5 h | – | – | ED50 [4]: 48.2 mg/kg; ED50 ([5]; Rattus norvegicus, ip, at peak time): 29.5 mg/kg; MES test (po) efficacy % ([3]; 20 mg/kg): 16.6%; Lithium pilocarpine model (pre) peak time [6]: 1 h; Lithium pilocarpine model (pre) efficacy % ([6]; 50 mg/kg): 33.3% |
